# Data as given in article PMC3016232 (Cancer Chemotherapy and Pharmacology, 2010).
# What was measured:
# clinical = format: in vivo, human
# [1] = format: in vivo, human
# UGT1A = experiment: Formation of SN-38G from SN-38 in pooled human liver microsomes; format: in vitro ADME; conditions: SN-38 5 μM, 30 min, microsomal protein 0.8 mg/mL
# UGT1A1 mRNA = UGT1A1 mRNA levels in HCT116 cells by quantitative RT-PCR; format: cell-based, human; conditions: HCT 116 cells; methimazole 25–100 μM; up to ~48 h
# [2] = mean of the courses with or without methimazole, plasma
# [3] = courses with methimazole, plasma
# [4] = courses without methimazole, plasma
smiles,measurement,setting,value
"CCc1c2c(nc3ccc(OC(=O)N4CCC(NCCCCC(=O)O)CC4)cc13)-c1cc3c(c(=O)n1C2)COC(=O)C3(O)CC (centres unmarked) [APC, 7-Ethyl-10-[4-N-(5-aminopentanoic acid)-1-piperidino]-carbonyloxy-camptothecin]",mean exposure (AUC) to APC,clinical; [2],"3,018 ng × h/mL"
"CCc1c2c(nc3ccc(OC(=O)N4CCC(N)CC4)cc13)-c1cc3c(c(=O)n1C2)COC(=O)[C@]3(O)CC [NPC, 7-Ethyl-10-[4-amino-1-piperidino]-carbonyloxycamptothecin]",mean exposure (AUC) to NPC,clinical; [2],32.3 ng·h/mL
"CCc1c2c(nc3ccc(O)cc13)-c1cc3c(c(=O)n1C2)COC(=O)[C@]3(O)CC [SN-38, 7-Ethyl-10-hydroxy camptothecin]",mean relative extent of glucuronidation (ratio of SN-38G over SN-38),clinical; courses with methimazole,10.1
same,mean SN-38 AUC,clinical; [3],125 ng·h/mL
same,mean relative extent of glucuronidation (ratio of SN-38G over SN-38),clinical; courses without methimazole,6.85
same,mean SN-38 AUC,clinical; [4],110 ng·h/mL
CCc1c2c(nc3ccc(O[C@@H]4O[C@H](C(=O)O)[C@@H](O)[C@H](O)[C@H]4O)cc13)-c1cc3c(c(=O)n1C2)COC(=O)[C@]3(O)CC [SN-38G],mean SN-38G AUC,clinical; [3],"1,255 ng × h/mL"
same,mean SN-38G AUC,clinical; [4],753 ng·h/mL
CCc1c2c(nc3ccc(OC(=O)N4CCC(N5CCCCC5)CC4)cc13)-c1cc3c(c(=O)n1C2)COC(=O)[C@]3(O)CC [irinotecan],AUC,"clinical; male, human, in vivo",16100 ng·h/mL
same,Irinotecan-related toxicity,[1]; all courses,mild
same,mean absolute neutrophil count nadir,[1]; mean of all courses,4.2e+09 L⁻¹
CC(=O)N1CCN(c2ccc(OCC3COC(Cn4ccnc4)(c4ccc(Cl)cc4Cl)O3)cc2)CC1 (centres unmarked) [ketoconazole],reduction of SN-38G formation,UGT1A; ketoconazole 25 μM,43%
Cn1cc[nH]c1=S [methimazole],induction of UGT1A1 mRNA levels compared to untreated control cells,UGT1A1 mRNA,15–18 fold
same,effect on SN-38G formation,UGT1A; methimazole 37.5 μM,did not decrease
